Test: refractive index (other wavelength) (dimensionless); xn = mol fraction of the nth substance listed
Settings: 318.15 K, 101 kPa, Liquid, Standard Abbe refractometry

CC(C)OC(C)C [diisopropyl ether] + CO
refractive index
Settings	Wavelength=486.1 nm	Wavelength=546.1 nm	Wavelength=587.6 nm	Wavelength=589.3 nm	Wavelength=632.8 nm	Wavelength=644 nm	Wavelength=706.5 nm
x2 = 0	–	1.35556	1.35416	1.35411	1.3529	1.35259	1.3512
x2 = 0.0423	–	1.35556	1.35414	1.35409	1.35285	1.35256	1.35117
x2 = 0.0424	–	1.35551	1.3541	1.35405	1.35283	1.35253	1.35116
x2 = 0.082	–	1.35551	1.35411	1.35406	1.35285	1.35255	1.35115
x2 = 0.0822	–	1.35565	1.35423	1.35418	1.35295	1.35267	1.35128
x2 = 0.1171	–	1.35556	1.35417	1.35412	1.3529	1.35259	1.3512
x2 = 0.1271	–	1.35557	1.35415	1.3541	1.35289	1.3526	1.35122
x2 = 0.1827	1.35814	1.35541	1.354	1.35395	1.35273	1.35243	1.35105
x2 = 0.2162	1.35804	1.35526	1.35387	1.35382	1.35262	1.35233	–
x2 = 0.251	1.35753	1.35479	1.35338	1.35333	1.35213	1.35185	–
x2 = 0.3298	1.358	1.35528	1.35387	1.35292	1.35259	1.35229	1.35092
x2 = 0.3577	1.35689	1.35419	1.35274	1.35269	1.35147	1.3512	1.34984
x2 = 0.4497	1.35572	1.35303	1.35162	1.35157	1.35038	1.3501	1.34871
x2 = 0.4525	1.35631	1.3537	1.35228	1.35223	1.35098	1.35071	1.34936
x2 = 0.522	1.35398	1.35136	1.34995	1.34989	1.34869	1.34842	1.34709
x2 = 0.5543	1.35305	1.35042	1.34905	1.349	1.34779	1.34751	1.34616
x2 = 0.609	1.35085	1.34818	1.34684	1.3468	1.34566	1.34538	1.34405
x2 = 0.6529	1.34936	1.34672	1.34534	1.34529	1.34413	1.34386	1.34255
x2 = 0.7504	1.34529	1.34271	1.34138	1.34133	1.34018	1.3399	1.33858
x2 = 0.804	1.33919	1.33675	1.33541	1.33536	1.33421	1.33396	1.33271
x2 = 0.807	1.34094	1.33842	1.33709	1.33777	1.33591	1.33566	1.33438
x2 = 0.8727	1.3379	1.33543	1.33411	1.33406	1.33294	1.33269	1.33146
x2 = 0.9233	1.32983	1.32743	1.32614	1.3261	1.32501	1.32477	1.3236
x2 = 0.9253	1.33151	1.32907	1.32777	1.32772	1.32665	1.32641	1.32521
x2 = 0.9527	1.32842	1.32601	1.32474	1.32469	1.32362	1.32339	1.32222
x2 = 0.9773	1.32541	1.32301	1.32177	1.32173	1.32066	1.32042	1.3193
x2 = 0.989	1.3242	1.32177	1.32052	1.32048	1.31944	1.31921	1.31807
x2 = 0.9964	1.32328	1.3209	1.31967	1.31963	1.31859	1.31836	1.31724

Source: the NIST ThermoML archive (doi:10.1016/j.fluid.2014.09.014)
